In one data set the target is rTRPV6-E402A (Rattus norvegicus, UniProt Q9R186, E442A). The data set is described as follows: cell-based. An excerpt: (§1) To further characterize the 2-APB binding site and to examine the contribution of individual residues to 2-APB inhibition, we introduced alanine substitutions at residues in the 2-APB binding pocket (E402, H425, Y466, R469, and M602) and tested 2-APB inhibition.
(§2) For crystallization experiments, we used the previously developed construct TRPV6*[39], which includes wild-type rat TRPV6 (rTRPV6) residues 1–668 and three point mutations (I62Y, L92N, and M96Q), and the TRPV6*-Y466A construct, which contains an additional point mutation, Y466A. For calcium uptake measurement experiments, we used TRPV6*, rTRPV6, and rTRPV6 with individual alanine substitutions (rTRPV6-E402A, rTRPV6-H425A, rTRPV6-Y466A, rTRPV6-R469A, and rTRPV6-M602A), wild-type human TRPV6 (hTRPV6), hTRPV6 with a single tyrosine-to-alanine substitution (hTRPV6-Y467A), wild-type rat TRPV1 (rTRPV1), rat TRPV2 (rTRPV2) and mouse TRPV3 (mTRPV3), and their mutant versions with single tyrosine-to-alanine substitutions (rTRPV1-Y554A, rTRPV2-Y514A, and mTRPV3-Y564A, respectively). For cryo-EM experiments, we used hTRPV6 and hTRPV6-Y467A constructs.
(§3) The intracellular Ca^2+ measurements from HEK 293 cells expressing different TRP channel constructs (see above) were performed similarly to those described previously[39],[49]. Briefly, to measure 2-APB-dependent inhibition of TRPV6 activity, cells expressing TRPV6 constructs were suspended in Ca^2+-free buffer and transferred to a quartz cuvette. After an initial 100-s equilibration period, 2-APB was added to the cuvette and incubated for another 100 s, before 2 mM CaCl2 was added. For the TRPV6-E402A mutant, 5 mM instead of 2 mM CaCl2 was added. For intracellular Ca^2+ measurements from HEK 293 cells expressing TRPV1, TRPV2, or TRPV3, the experiments were carried out with prewarmed modified HBS (118 mM NaCl, 4.8 mM KCl, 1 mM MgCl2, 2.5 mM CaCl2, 5 mM D-glucose, 10 mM HEPES pH 7.4). Briefly, HEK 293 cells expressing TRPV1/2/3 channels were centrifuged at 600×g, resuspended in modified HBS containing 5 μg/mL of Fura 2-AM (Life Technologies), and incubated at 37 °C for 45 min. Next, the cells were centrifuged for 5 min at 600×g, resuspended in prewarmed, modified HBS, and incubated again at 37 °C for 20–30 min in the dark. The cells were subsequently pelleted and washed twice, and then resuspended in modified HBS for fluorescence measurements. Intracellular Ca^2+ was measured by taking the ratio of fluorescence (510 nm) emitted from Fura 2-AM after excitation at either a wavelength of 340 nm (excites Ca^2+ bound Fura 2-AM) or 380 nm (excites Ca^2+ free Fura 2-AM). The excitation wavelength was switched at 1-s intervals. ΔF340/F380 was measured as the difference between baseline F340/F380 ratio recorded before the addition of Ca^2+ (for TRPV6 experiments) or 2-APB (for TRPV1-3) and the maximum F340/F380 after addition of either Ca^2+ or 2-APB. Data were normalized to ΔF340/F380 in the absence of 2-APB (for TRPV6 constructs) or the ΔF340/F380 value at saturating concentrations of 2-APB (for TRPV1/2/3). All Fura2-AM-based fluorescence measurements were conducted using a QuantaMaster^TM 40 (Photon Technology International) spectrofluorometer at room temperature in a quartz cuvette under constant stirring.

Another data set has as its target rTRPV6-H425A (Rattus norvegicus, UniProt Q9R186, H465A). The data set is described as follows: cell-based.
Description: as §1, §2, §3

The target in the next data set is rTRPV6-M602A (Rattus norvegicus, UniProt Q9R186, M642A). The data set is described as follows: cell-based.
Sequence of rTRPV6-M602A (Q9R186 41-767 M642A limits assumed): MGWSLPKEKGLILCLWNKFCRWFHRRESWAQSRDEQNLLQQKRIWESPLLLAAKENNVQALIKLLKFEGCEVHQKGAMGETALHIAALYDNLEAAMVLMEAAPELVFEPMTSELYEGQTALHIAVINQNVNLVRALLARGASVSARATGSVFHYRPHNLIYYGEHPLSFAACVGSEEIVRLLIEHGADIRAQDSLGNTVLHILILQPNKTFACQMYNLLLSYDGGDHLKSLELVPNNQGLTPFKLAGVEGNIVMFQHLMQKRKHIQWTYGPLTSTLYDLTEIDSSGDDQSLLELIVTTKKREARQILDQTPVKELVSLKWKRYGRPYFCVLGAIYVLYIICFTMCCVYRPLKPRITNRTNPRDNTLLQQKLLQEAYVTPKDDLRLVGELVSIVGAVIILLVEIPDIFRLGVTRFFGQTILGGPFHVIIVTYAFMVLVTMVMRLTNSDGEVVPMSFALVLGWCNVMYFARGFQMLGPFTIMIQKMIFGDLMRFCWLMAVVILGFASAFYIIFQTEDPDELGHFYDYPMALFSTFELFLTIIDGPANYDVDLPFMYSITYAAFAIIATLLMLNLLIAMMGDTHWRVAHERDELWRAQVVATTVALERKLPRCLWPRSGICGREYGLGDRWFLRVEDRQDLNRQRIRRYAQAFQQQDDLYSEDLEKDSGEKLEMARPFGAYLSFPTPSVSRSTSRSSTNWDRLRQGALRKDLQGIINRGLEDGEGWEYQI
Description: as §1, §2, §3

For a further data set, the target named is rTRPV6-R469A (Rattus norvegicus, UniProt Q9R186, R509A). The data set is described as follows: cell-based.
Sequence of rTRPV6-R469A (Q9R186 41-767 R509A limits assumed): as the sequence (Q9R186 41-767 M642A limits assumed) above, with R469A, A602M counted along it
Description: as §1, §2, §3

The next data set addresses rTRPV6-Y466A (Rattus norvegicus, UniProt Q9R186, Y506A). The data set is described as follows: cell-based.
Description: as §1, §2, §3

Data set [1] deals with TRPV6* (rat TRPV6 residues 1-668, I62Y, L92N, M96Q) (Rattus norvegicus, UniProt Q9R186, I102Y/L132N/M136Q). The data set is described as follows: cell-based. As to the method:
(§4) Arrows indicate the times when 2-APB and Ca^2+ were added. […] The changes in the fluorescence intensity ratio at 340 and 380 nm (F340/F380) evoked by addition of 2 mM Ca^2+ after preincubation with various concentrations of 2-APB were normalized to the maximal change in F340/F380 after addition of 2 mM Ca^2+ in the absence of 2-APB. […] Error bars represent SEMs
as §2
as §3, with “TRPV1/2/3).” for “TRPV1/2/3). All Fura2-AM-based fluorescence measurements were conducted using a QuantaMaster^TM 40 (Photon Technology International) spectrofluorometer at room temperature in a quartz cuvette under constant stirring.”

A further data set deals with hTRPV6-Y467A (Homo sapiens, UniProt Q9H1D0, Y507A). The data set is described as follows: cell-based. On the procedure:
as §4, §2
as §3, with “TRPV1/2/3).” for “TRPV1/2/3). All Fura2-AM-based fluorescence measurements were conducted using a QuantaMaster^TM 40 (Photon Technology International) spectrofluorometer at room temperature in a quartz cuvette under constant stirring.”

The target of the next data set is wild-type hTRPV6 (Homo sapiens, UniProt Q9H1D0). The data set is described as follows: cell-based. As to the method: as §4, §2
Sequence of wild-type hTRPV6 (Q9H1D0 41-765 limits assumed): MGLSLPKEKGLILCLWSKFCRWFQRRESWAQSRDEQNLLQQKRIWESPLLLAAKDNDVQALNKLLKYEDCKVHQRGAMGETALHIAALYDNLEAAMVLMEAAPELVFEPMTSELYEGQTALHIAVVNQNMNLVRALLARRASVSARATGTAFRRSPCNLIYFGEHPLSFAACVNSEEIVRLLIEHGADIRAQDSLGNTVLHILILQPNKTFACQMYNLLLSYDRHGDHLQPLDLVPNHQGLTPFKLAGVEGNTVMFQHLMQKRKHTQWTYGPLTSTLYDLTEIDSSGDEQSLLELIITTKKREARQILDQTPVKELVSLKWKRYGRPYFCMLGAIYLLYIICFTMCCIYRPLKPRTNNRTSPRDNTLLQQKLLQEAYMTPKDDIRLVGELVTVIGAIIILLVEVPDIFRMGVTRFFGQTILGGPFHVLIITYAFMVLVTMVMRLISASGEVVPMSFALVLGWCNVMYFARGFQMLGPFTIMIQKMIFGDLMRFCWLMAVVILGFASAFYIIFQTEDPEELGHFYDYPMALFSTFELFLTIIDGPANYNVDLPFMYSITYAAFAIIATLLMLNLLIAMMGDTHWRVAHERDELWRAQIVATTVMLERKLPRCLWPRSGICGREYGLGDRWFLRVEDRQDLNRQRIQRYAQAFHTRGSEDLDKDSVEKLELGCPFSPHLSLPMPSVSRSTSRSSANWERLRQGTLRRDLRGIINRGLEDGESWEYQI
as §3, with “TRPV1/2/3).” for “TRPV1/2/3). All Fura2-AM-based fluorescence measurements were conducted using a QuantaMaster^TM 40 (Photon Technology International) spectrofluorometer at room temperature in a quartz cuvette under constant stirring.”

For a further data set, the target named is wild-type rTRPV6 (Rattus norvegicus, UniProt Q9R186). The data set is described as follows: cell-based. On the procedure: as §4, §2
Sequence of wild-type rTRPV6 (Q9R186 41-767 limits assumed): as the sequence (Q9R186 41-767 M642A limits assumed) above, with A602M counted along it
as §3, with “TRPV1/2/3).” for “TRPV1/2/3). All Fura2-AM-based fluorescence measurements were conducted using a QuantaMaster^TM 40 (Photon Technology International) spectrofluorometer at room temperature in a quartz cuvette under constant stirring.”

Data set [2] concerns mouse TRPV3 (mTRPV3-Y564A). The note with it: leftward shift of 2-APB concentration dependence; HEK 293 cells, Fura-2. An excerpt: (§5) Fig. 5 Probing of the 2-APB binding site in different TRPV channels. a–c Dose–response curves for 2-APB activation of wild-type (black) and mutant (red) rat TRPV1 (a), rat TRPV2 (b), and mouse TRPV3 (c) channels with alanine substitution of the conserved tyrosine in the presumed 2-APB binding pocket. Each data point represents an average of n = 3–7 measurements with error bars representing SEMs. d, e Close-up view of superposition of the 2-APB binding pocket in the TRPV6*2-APB crystal structure (cyan) and the corresponding regions of rat TRPV1 (d) PDB ID: 5IRX, orange and rabbit TRPV2 (e) PDB ID: 5AN8, green. Phosphatidylcholine (PC), cholesterol and 2-APB molecules as well as the side chain of the conserved tyrosine are shown as sticks
(§6) For crystallization experiments, we used the previously developed construct TRPV6*[39], which includes wild-type rat TRPV6 (rTRPV6) residues 1–668 and three point mutations (I62Y, L92N, and M96Q), and the TRPV6*-Y466A construct, which contains an additional point mutation, Y466A. […]
(§7) The intracellular Ca^2+ measurements from HEK 293 cells expressing different TRP channel constructs (see above) were performed similarly to those described previously[39],[49]. […] The cells were subsequently pelleted and washed twice, and then resuspended in modified HBS for fluorescence measurements. Intracellular Ca^2+ was measured by taking the ratio of fluorescence (510 nm) emitted from Fura 2-AM after excitation at either a wavelength of 340 nm (excites Ca^2+ bound Fura 2-AM) or 380 nm (excites Ca^2+ free Fura 2-AM). The excitation wavelength was switched at 1-s intervals. ΔF340/F380 was measured as the difference between baseline F340/F380 ratio recorded before the addition of Ca^2+ (for TRPV6 experiments) or 2-APB (for TRPV1-3) and the maximum F340/F380 after addition of either Ca^2+ or 2-APB. […] All Fura2-AM-based fluorescence measurements were conducted using a QuantaMaster^TM 40 (Photon Technology International) spectrofluorometer at room temperature in a quartz cuvette under constant stirring.

The next data set deals with rat TRPV1 (rTRPV1-Y554A). The note with it: leftward shift of 2-APB concentration dependence; HEK 293 cells, Fura-2.
Description: as §5, §6, §7

A further data set relates to rat TRPV2 (rTRPV2-Y514A). Particulars: leftward shift of 2-APB concentration dependence; HEK 293 cells, Fura-2.
Description: as §5, §6, §7

Another data set has as its system TRPV4. Particulars: cited from earlier work.
In the next data set the test system is TRPV5. Particulars: cited from earlier work.
Data set [3] concerns the target TRPV6* (rat TRPV6 residues 1-668 with I62Y, L92N and M96Q) (rat) (UniProt Q9R186). The data set is described as follows: crystal structure; TRPV6* constructs purified in DDM, without or with 1 mM 2-APB or 2-APB-Br; hanging drop, 20 °C, 20-24% PEG 350 MME, 50 mM NaCl, 50 mM Tris-HCl pH 8.0-8.5.
Data set [4] concerns the molecule itself. The data set is described as follows: cryo-EM structure; hTRPV6-Y467A in amphipols, 0.35 mg/ml, without or with 1 mM 2-APB; C4 symmetry imposed.
[5] abbreviates: HEK 293 cells, Fura-2, logistic fit, mean ± SEM.
Setting [6] is: HEK 293 cells, Fura-2, logistic fit.

Sequence of TRPV6* (rat TRPV6 residues 1-668, I62Y, L92N, M96Q) (Q9R186 1-668 I102Y/L132N/M136Q): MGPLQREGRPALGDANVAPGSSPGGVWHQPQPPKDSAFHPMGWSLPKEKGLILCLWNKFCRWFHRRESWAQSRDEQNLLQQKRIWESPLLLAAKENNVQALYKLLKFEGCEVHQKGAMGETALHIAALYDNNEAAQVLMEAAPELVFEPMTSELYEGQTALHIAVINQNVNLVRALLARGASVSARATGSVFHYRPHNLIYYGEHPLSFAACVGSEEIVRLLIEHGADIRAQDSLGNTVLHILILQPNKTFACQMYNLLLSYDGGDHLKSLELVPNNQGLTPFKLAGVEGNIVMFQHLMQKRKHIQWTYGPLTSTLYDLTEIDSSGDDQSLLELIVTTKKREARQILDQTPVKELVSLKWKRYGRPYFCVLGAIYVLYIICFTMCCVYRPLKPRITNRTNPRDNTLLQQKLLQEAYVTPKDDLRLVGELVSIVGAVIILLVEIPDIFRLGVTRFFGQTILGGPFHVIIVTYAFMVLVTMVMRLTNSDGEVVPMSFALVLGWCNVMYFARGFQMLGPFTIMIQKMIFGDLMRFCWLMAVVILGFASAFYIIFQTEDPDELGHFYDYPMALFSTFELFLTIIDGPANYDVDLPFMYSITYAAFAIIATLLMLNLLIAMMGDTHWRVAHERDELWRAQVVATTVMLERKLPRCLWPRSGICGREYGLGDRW
Sequence of rTRPV6-Y466A (Q9R186 41-767 Y506A limits assumed): as the sequence (Q9R186 41-767 M642A limits assumed) above, with Y466A, A602M counted along it
Sequence of rTRPV6-E402A (Q9R186 41-767 E442A limits assumed): as the sequence (Q9R186 41-767 M642A limits assumed) above, with E402A, A602M counted along it
Sequence of rTRPV6-H425A (Q9R186 41-767 H465A limits assumed): as the sequence (Q9R186 41-767 M642A limits assumed) above, with H425A, A602M counted along it

With `NCCOB(c1ccccc1)c1ccccc1` [2-APB, 2-aminoethoxydiphenyl borate], the IC50 (usually the concentration that inhibits the measured activity by half) against rTRPV6-E402A was 7.5 ± 2.1 µM; at rTRPV6-H425A, 165 ± 32 µM; at rTRPV6-M602A, 98 ± 19 µM; at rTRPV6-R469A, 23.4 ± 1.6 µM; at rTRPV6-Y466A it was 3.62 ± 0.54 µM; in data set [1] it was 156 ± 20 µM. The IC50 against hTRPV6-Y467A stood at 60 ± 13 µM; against wild-type hTRPV6 it was 274 ± 27 µM; at wild-type rTRPV6, 184 ± 8 µM. Further, the “maximal inhibition of Ca2+ uptake, TRPV6*” value in data set [1] (setting [5]) is recorded as 83.5 ± 2.9%. The “maximal inhibition of Ca2+ uptake, hTRPV6-Y467A” value on hTRPV6-Y467A (setting [6]) is reported as 92.4 ± 8.1%. For the same molecule, the “increased potency of 2-APB inhibition, hTRPV6-Y467A compared to hTRPV6” value on hTRPV6-Y467A (ratio of IC50 values) was found to be 4.5 fold. Moreover, the “maximal inhibition of Ca2+ uptake, wild-type hTRPV6” value at wild-type hTRPV6 (setting [6]) came to 72.6 ± 2.7%. Moreover, on wild-type rTRPV6 (setting [5]), the “maximal inhibition of Ca2+ uptake, wild-type rTRPV6” value came out at 93.6 ± 1.1%. In addition, the “increase in 2-APB agonist potency, TRPV3 tyrosine-to-alanine mutant vs wild-type” value in data set [2] is 20 fold. Besides, the “increase in 2-APB agonist potency, TRPV1 tyrosine-to-alanine mutant vs wild-type” value in the data set with rat TRPV1 (rTRPV1-Y554A) was 3 fold. The “increase in 2-APB agonist potency, TRPV2 tyrosine-to-alanine mutant vs wild-type” value in the data set on rat TRPV2 (rTRPV2-Y514A) is given as 40 fold. In addition, the “2-APB modulation of TRPV4” value in the data set on TRPV4 is on record as “lack of measurable 2-APB modulation”. Also, the “2-APB modulation of TRPV5” value in the data set on TRPV5 was “lack of measurable 2-APB modulation”.

As for “TRPV6* (rat TRPV6 residues 1-668 with I62Y, L92N and M96Q) (from UniProt Q9R186 1-668) (domain or fragment)”, the stoichiometry N (as a rule, the number of molecules, sites or subunits per partner or assembly) in data set [3] is 4.

B1: human TRPV6 with a single tyrosine-to-alanine substitution (hTRPV6-Y467A) (natural protein)
chain: MGLSLPKEKGLILCLWSKFCRWFQRRESWAQSRDEQNLLQQKRIWESPLLLAAKDNDVQALNKLLKYEDCKVHQRGAMGETALHIAALYDNLEAAMVLMEAAPELVFEPMTSELYEGQTALHIAVVNQNMNLVRALLARRASVSARATGTAFRRSPCNLIYFGEHPLSFAACVNSEEIVRLLIEHGADIRAQDSLGNTVLHILILQPNKTFACQMYNLLLSYDRHGDHLQPLDLVPNHQGLTPFKLAGVEGNTVMFQHLMQKRKHTQWTYGPLTSTLYDLTEIDSSGDEQSLLELIITTKKREARQILDQTPVKELVSLKWKRYGRPYFCMLGAIYLLYIICFTMCCIYRPLKPRTNNRTSPRDNTLLQQKLLQEAYMTPKDDIRLVGELVTVIGAIIILLVEVPDIFRMGVTRFFGQTILGGPFHVLIITYAFMVLVTMVMRLISASGEVVPMSFALVLGWCNVMAFARGFQMLGPFTIMIQKMIFGDLMRFCWLMAVVILGFASAFYIIFQTEDPEELGHFYDYPMALFSTFELFLTIIDGPANYNVDLPFMYSITYAAFAIIATLLMLNLLIAMMGDTHWRVAHERDELWRAQIVATTVMLERKLPRCLWPRSGICGREYGLGDRWFLRVEDRQDLNRQRIQRYAQAFHTRGSEDLDKDSVEKLELGCPFSPHLSLPMPSVSRSTSRSSANWERLRQGTLRRDLRGIINRGLEDGESWEYQILVPRGSAAAWSHPQFEK
For the molecule B1, the “stoichiometry N” value in data set [4] turned out to be 4.
